Reference: patent US20040034003A1, “7-Hydroxy-16alpha-fluoro-5-androsten-17-ones and 7-hydroxy-16alpha-fluoro-5-androstan-17-ones and derivatives thereof” (priority 2002, published 2004)
“And” between values parts separate entries of the source, which are not always exact repeats. Equal values may be shown once.

Test system: TPA-Induced DNA Synthesis in Mouse Epidermis
Assay: TPA-induced DNA synthesis in mouse epidermis: [3H]thymidine incorporation and epidermal DNA content of a 2x2 cm2 skin section
Format: in vivo
Settings: for μg DNA / corrected cpm / cpm/μg DNA / cpm: individual mouse
Description: Epidermal hypeplasia is determined by measuring the stimulation in [^3H] thymidine incorporation as well as epidermal DNA content of a 2×2 cm^2 section of skin twenty hours after TPA application.
In prior experiments, 16α-fluoro-5-androsten-17-one was administered in escalating doses by the oral subcutaneous, intraperitoneal, and buccal routes of administration, and the effect on TPA-stimulated epidermal [^3H] thymidine incorporation and epidermal DNA content was determined.
In this experiment, the effect of treating mice subcutaneously (s.c.) with suspensions of 7α-hydroxy-16α-flouro-5-androsten-17-one and suspensions of 16aflouro-5-androsten-17-one were investigated.
Variousl6α-flouro-5-androsten-17 one suspensions (Q) were prepared. The vehicle was 95% saline (0.9% NaCl) and 5% Emulphor. For the 5 mg/kg s.c. suspension, 25.3 mg was suspended in 10 mL of Emulphor-saline. The other suspensions were made by diluting the 5 mg/kg suspension. For the 2.5 mg/kg suspension, 1 mL of 5mg/kg s.c. suspension was diluted to a final volume of 2mL, for the 1 m/kg suspension 1 mL of the 5 mg/kg suspension was made to a total of 5 mL, while for the 0.125 mg/kg suspension, 0.5 mL of the 5 mg/kg suspension was made to a final volume of 20 mL. Magnetic stir bars were added to the suspensions which were kept on a magnetic stirrer.
7α-hydroxy-16α-flouro-5-androsten-17-one was prepared as described hereinabove. For the 5 mg/kg s.c. suspension, 16.3 mg was suspended in 6.5 mL of Emulphor-saline. The other suspensions were made by diluting the 5 mg/kg suspension. For the 2.5 mg/kg, 1 mL of 5 mg/kg suspension was diluted to a final volume of 2 mL, for the 1 mg/kg suspension 1 mL of the 5 mg/kg suspension was made to total 5 mL, while for the 0.125 mg/kg suspension, 0.5 mL of the 5 mg/kg suspension was made up to final volume of 20 mL. Magnetic stir bars were added to the suspensions and the suspensions were kept on a magnetic stirrer.
Female CD-1 mice were obtained from Charles River Laboratories, Wilmington, Mass. at 44-46 days of age. The mice were housed two to three per cage in plastic shoebox cages on Alphacel bedding with 12 hours of alternating light and dark in the CAF Animal Facility, 6th floor, Pharmacy Building. The mice had ad libitum access-to Purina 5015 chow and acidified tap water (pH≦2.6). The mice were allowed to acclimate to the facility for one week prior to use in an experiment. Three days after obtaining the mice, the mice were shaved and weighed. Only those mice showing no hair regrowth were used in the experiment.
Four days after the mice were shaved, they were treated as follows:
The mice were sacrificed 20 hours after treatment by an overdose of CO2. Twenty minutes prior to sacrifice, the mice were injected with 60 μCi of [^3H]thymidine (Amersham Batch 297). The mice were treated with a depilatory to remove any residual hair. A 2×2 cm^2 piece of skin was excised, placed in ice water for 30 seconds, then in 55° C. water for 30 seconds, then ice water again for 30 seconds. The epidermis was scrapped off using a scalpel and the scrapings were placed into ice cold 0.4N TCA (trichloroacetic acid). The scrapings were homogenized using a Tekmar Tissumizer (80% power for 30 seconds). The homogenates were centrifuged for 20 minutes at 3,000×g. The precipitates were washed 3× with 0.2N TCA, and 2× with absolute ethanol. The DNA in each sample was hydrolyzed with 0.5N TCA for 30 minuts at 90°. The tubes were centrifuged for 20 minutes at 3000×g. A 0.2 mL aliquot of each hydrolysate was counted in a LKB Rackbeta scintillation counter using Scintiverse II BD as the counting medium. DNA content was determined by the Burton diphenylamine assay.
Various suspensions were prepared of 16α-fluoro-5-androsten-17-one as follows. The vehicle was 95% saline (0.9% NaCl) and 5% Emulphor. For the 5 mg/kg s.c. suspension, 27.8 mg was suspended in 11.4 mL of Emulphor-saline. The other suspensions were made by diluting the 5 mg/kg suspension. […]

[1] = Example 4, 0.125 mg/kg s.c. 1 h before topical TPA 2 μg, 20 h, 0.125 mg/kg
[2] = Example 4, 1 mg/kg s.c. 1 h before topical TPA 2 μg, 20 h, 1 mg/kg
[3] = Example 4, 2.5 mg/kg s.c. 1 h before topical TPA 2 μg, 20 h, 2.5 mg/kg
[4] = Example 4, 5 mg/kg s.c. 1 h before topical TPA 2 μg, 20 h
[5] = Example 4, 5 mg/kg s.c. 1 h before topical TPA 2 μg, 20 h, 5 mg/kg
[6] = Example 5, 1 mg/kg s.c. 1 h before topical TPA 2 μg, 20 h, 1 mg/kg
[7] = Example 5, 1.75 mg/kg s.c. 1 h before topical TPA 2 μg, 20 h, 1.75 mg/kg
[8] = Example 5, 2.5 mg/kg s.c. 1 h before topical TPA 2 μg, 20 h, 2.5 mg/kg
[9] = Example 5, 3.75 mg/kg s.c. 1 h before topical TPA 2 μg, 20 h, 3.75 mg/kg
[10] = Example 5, 5 mg/kg s.c. 1 h before topical TPA 2 μg, 20 h, 5 mg/kg

C[C@]12CCCCC1=C[C@@H](O)[C@@H]1[C@@H]2CC[C@]2(C)C(=O)[C@H](F)C[C@@H]12 [7α-hydroxy-16α-fluoro-5-androsten-17-one, 16α-fluoro-7α-hydroxy-5-androsten-17-one]
μg DNA (Example 4, 0.125 mg/kg s.c. 1 h before topical TPA 2 μg, 20 h, Burton diphenylamine assay, 0.125 mg/kg): 16.8 µg and 15.4 µg
cpm/μg DNA (group average ±) (Example 4, 0.125 mg/kg s.c. 1 h before topical TPA 2 μg, 20 h): 335.1 ± 64.4 cpm/μg DNA
corrected cpm [1]: 6,394.0 cpm and 4,458.0 cpm
cpm/μg DNA [1]: 380.6 cpm/μg DNA and 289.5 cpm/μg DNA
cpm (Example 4, 0.125 mg/kg s.c. 1 h before topical TPA 2 μg, female CD-1 mice, 20 h after treatment, 0.125 mg/kg): 6,419.0 cpm and 4,483.0 cpm
cpm/μg DNA (group average ±) (Example 4, 1 mg/kg s.c. 1 h before topical TPA 2 μg, 20 h): 245.5 ± 44.1 cpm/μg DNA
corrected cpm [2]: 3,021.0 cpm and 3,623.0 cpm
cpm [2]: 3,046.0 cpm and 3,648.0 cpm
cpm/μg DNA [2]: 214.3 cpm/μg DNA and 276.6 cpm/μg DNA
μg DNA [2]: 14.1 µg and 13.1 µg
cpm/μg DNA (group average ±) (Example 4, 2.5 mg/kg s.c. 1 h before topical TPA 2 μg, 20 h): 350.2 ± 32.5 cpm/μg DNA
corrected cpm [3]: 4,478.0 cpm and 3,698.0 cpm
cpm [3]: 4,503.0 cpm and 3,723.0. cpm
cpm/μg DNA [3]: 373.2 cpm/μg DNA and 327.3 cpm/μg DNA
μg DNA [3]: 12.0 µg and 11.3 µg
cpm/μg DNA (group average ±) [4]: 360.3 ± 9.3 cpm/μg DNA
μg DNA [4]: 11.9 µg
corrected cpm [5]: 4,366.0 cpm and 4,209.0 cpm
cpm [5]: 4,391.0 cpm and 4,234.0 cpm
cpm/μg DNA [5]: 366.9 cpm/μg DNA and 353.7 cpm/μg DNA
effect on [3H]thymidine incorporation and epidermal DNA content (in words) (Example 4, s.c., dose range 0.125-5 mg/kg): inhibited [^3H] thymidine incorporation and epidermal DNA content over the dose range with no apparent nadir or over stimulation

C[C@]12CCCCC1=C[C@H](O)[C@@H]1[C@@H]2CC[C@]2(C)C(=O)[C@H](F)C[C@@H]12 [7β-hydroxy-16α-fluoro-5-androsten-17-one, 16α-fluoro-7β-hydroxy-5-androsten-17-one]
cpm/μg DNA (group average ±) (Example 5, 1 mg/kg s.c. 1 h before topical TPA 2 μg, 20 h): 283.4 ± 35.3 cpm/μg DNA
corrected cpm [6]: 4,501.0 cpm and 3,230.0 cpm
cpm/μg DNA [6]: 308.3 cpm/μg DNA and 258.4 cpm/μg DNA
μg DNA [6]: 14.6 µg and 12.5 µg
cpm (Example 5, 1 mg/kg s.c. 1 h before topical TPA 2 μg, female CD-1 mice, 20 h, 1 mg/kg): 4,527.0 cpm and 3,256.0 cpm
cpm/μg DNA (group average ±) (Example 5, 1.75 mg/kg s.c. 1 h before topical TPA 2 μg, 20 h): 156.6 ± 17.0 cpm/μg DNA
corrected cpm [7]: 1,445.0 cpm and 1,534.0 cpm
cpm [7]: 1,471.0 cpm and 1,560.0 cpm
cpm/μg DNA [7]: 144.5 cpm/μg DNA and 168.6 cpm/μg DNA
μg DNA [7]: 10.0 µg and 9.1 µg
cpm/μg DNA (group average ±) (Example 5, 2.5 mg/kg s.c. 1 h before topical TPA 2 μg, 20 h): 480.5 ± 117.6 cpm/μg DNA
corrected cpm [8]: 3,814.0 cpm and 5,861.0 cpm
cpm [8]: 3,840.0 cpm and 5,887.0 cpm
cpm/μg DNA [8]: 397.3 cpm/μg DNA and 563.6 cpm/μg DNA
μg DNA [8]: 9.6 µg and 10.4 µg
cpm/μg DNA (group average ±) (Example 5, 3.75 mg/kg s.c. 1 h before topical TPA 2 μg, 20 h): 485.4 ± 115.3 cpm/μg DNA
corrected cpm [9]: 4,706.0 cpm and 2,585.0 cpm
cpm [9]: 4,732.0 cpm and 2,611.0 cpm
cpm/μg DNA [9]: 567.0 cpm/μg DNA and 403.9 cpm/μg DNA
μg DNA [9]: 8.3 µg and 6.4 µg
cpm/μg DNA (group average ±) (Example 5, 5 mg/kg s.c. 1 h before topical TPA 2 μg, 20 h): 653.7 ± 61.0 cpm/μg DNA
corrected cpm [10]: 6,132.0 cpm and 3,908.0 cpm
cpm [10]: 6,158.0 cpm and 3,934.0 cpm
cpm/μg DNA [10]: 696.8 cpm/μg DNA and 610.6 cpm/μg DNA
μg DNA [10]: 8.8 µg and 6.4 µg
activity compared with 16α-fluoro-5-androsten-17-one (in words) (Example 5, s.c.): much more active
dose producing an overstimulation of [3H]thymidine incorporation (Example 5, s.c.): 2.5 mg/kg
